Data on 21 molecules can be found in PMC6155831, “Promising Inhibitory Effects of Anthraquinones, Naphthopyrone, and Naphthalene Glycosides, from Cassia obtusifolia on α-Glucosidase and Human Protein Tyrosine Phosphatases 1B” (Molecules : A Journal of Synthetic Chemistry and Natural …, 2016).

Series [1] addresses T1, PTP1B (human recombinant) (Homo sapiens, UniProt P18031).
T1 construct: purchased Biomol International LP (Plymouth Meeting, PA, USA)
T1 sequence (P18031 1-435): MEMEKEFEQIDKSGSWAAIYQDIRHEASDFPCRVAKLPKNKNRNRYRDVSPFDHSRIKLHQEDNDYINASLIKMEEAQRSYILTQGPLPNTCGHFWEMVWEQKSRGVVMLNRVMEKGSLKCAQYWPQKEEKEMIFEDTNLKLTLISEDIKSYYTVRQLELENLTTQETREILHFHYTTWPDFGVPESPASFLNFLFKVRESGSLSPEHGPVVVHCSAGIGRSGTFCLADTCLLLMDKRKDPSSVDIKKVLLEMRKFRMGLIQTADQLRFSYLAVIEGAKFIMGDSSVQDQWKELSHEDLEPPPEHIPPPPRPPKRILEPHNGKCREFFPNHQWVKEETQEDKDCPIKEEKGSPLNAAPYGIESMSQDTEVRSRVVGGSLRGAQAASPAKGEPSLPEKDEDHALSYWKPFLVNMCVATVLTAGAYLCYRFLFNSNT
Put plainly: Protein tyrosine phosphatase 1B (PTP1B) inhibition assay with pNPP as substrate. The settings on record: pNPP substrate, test concentration up to 100 µg/mL in 10% DMSO, triplicate; for IC50: read-out: PTP1B IC50 (Mean ± SEM) (converted). The format is biochemical. As for the experimental part:
The PTP1B inhibitory activities were evaluated using p-nitrophenyl phosphate as the substrate (pNPP) in a procedure reported by Cui et al.. Each well of a 96-well plate (final volume 100 μL) contained were 40 μL of PTP1B enzyme (0.5 units diluted with a PTP1B reaction buffer containing 50 mM citrate (pH 6.0), 0.1 M NaCl, 1 mM EDTA, and 1 mM dithiotheritol (DTT)), to which sample (test concentration up to 100 μg/mL) dissolved in 10% DMSO was or was not added. The plate was pre-incubated at 37 °C for 10 min, and then 50 μL of 2 mM pNPP in PTP1B reaction buffer was added. Following incubation at 37 °C for 30 min, the reaction was terminated with the addition of 10 M NaOH. The amounts of p-nitrophenyl produced after enzymatic dephosphorylation from pNPP was estimated by measuring the absorbance at 405 nm using microplate spectrophotometer (Molecular Devices). The non-enzymatic hydrolysis of 2 mM pNPP was corrected by measuring the increase in absorbance at 405 nm obtained in the absence of PTP1B enzyme. The percent inhibition (%) was obtained by the following equation: % inhibition = (Ac − As)/Ac × 100, where Ac is the absorbance of the control, and As is the absorbance of the sample.

Series [2] addresses Yeast α-glucosidase. Put plainly: α-Glucosidase inhibitory assay with pNPG as substrate. In kind it is biochemical. The conditions noted are these: test concentration up to 400 µg/mL in 10% DMSO, triplicate. As for the experimental part:
Enzyme inhibition assays were carried out spectrophotometrically using a procedure reported by Li et al.. A 60 μL reaction mixture containing 20 μL of 100 mM phosphate buffer (pH 6.8), 20 μL of 2.5 mM pNPG, and 20 μL of sample (test concentration up to 400 μg/ml for compounds) dissolved in 10% DMSO was added to each well, followed by the addition of 20 μL of α-glucosidase (0.2 U/mL in 10 mM phosphate buffer (pH 6.8)). The plate was incubated at 37 °C for 15 min, and then 80 μL of 0.2 M sodium carbonate solution was added to stop the reaction. Right after that, the absorbance was recorded at 405 nm using a VERSA max microplate reader (Molecular Devices, Sunnyvale, CA, USA). The control contained the same reaction mixture with the same volume of phosphate buffer instead of sample solution. […] The percent inhibition (%) was obtained using the following equation: % Inhibition = (Ac − As)/Ac × 100, where Ac is the absorbance of the control, and As is the absorbance of the sample.

The subject of series [3] is α-glucosidase. On the set-up: method as in doi:10.1007/s10600-012-0275-4, PMID 25142941. The conditions noted are these: from the EtOAc fraction of the methanolic extract of C. obtusifolia; cited from earlier work.
Series [4] relates to insulin-resistant HepG2 cells. Put plainly: 2-NBDG glucose uptake assay in insulin-resistant HepG2 cells. In kind it is cell-based, human. As for the experimental part: The HepG2 (human hepatocarcinoma) cell line was purchased from the American Type Culture Collection (HB-8065, Manassas, VA, USA). Cells were maintained in MEM containing 2.0 mM L-glutamine, 0.1 mM non-essential amino acids, 1.0 mM sodium pyruvate, and 10% FBS at 37 °C in a humidified atmosphere with 5% CO2. The medium was changed every 48 h. […] The establishment of an insulin-resistant HepG2 cell model and glucose uptake was performed according to the reported method, with slight modifications. Briefly, HepG2 cells were cultured in 96-well cluster plates. After reaching confluence, the cells were treated with 10^−6 mol/L insulin for 24 h to induce insulin resistance. […] After this incubation, the 2-NBDG uptake in insulin-resistant HepG2 cells was measured. The cells were incubated with 40 μM 2-NBDG for 30 min. To stop the response, cells were washed with ice-cold PBS and the fluorescence intensity of 2-NBDG was measured on a Synergy HT microplate reader (BioTek Instruments, Winooski, VT, USA) at 485 nm excitation and 528 nm emission. Six replicate wells were established and each experiment was repeated three times.

Series [5] relates to PTP1B. Also noted: method as in earlier work. The conditions noted are these: cited from earlier work.
The subject of series [6] is HepG2 cells. Description: MTT cytotoxicity assay on HepG2 cells. The conditions noted are these: human, 24 h. As for the experimental part: Before determining the insulin resistance of alaternin and emodin, the cytotoxicity of alaternin and emodin on HepG2 cells was first measured by the MTT assay. […] To investigate the ability of alaternin and emodin to increase glucose uptake, a 2-[N-(7-nitrobenz-2-oxa-1,3-diazol-4-yl) amino]-2-deoxy-D-glucose (2-NBDG) uptake assay was performed with insulin-resistant HepG2 cells.

Regarding `COc1c(O[C@@H]2O[C@H](CO)[C@@H](O)[C@H](O)[C@H]2O)cc2c(c1O)C(=O)c1c(cc(C)c(O)c1OC)C2=O` [Gluco-aurantio obtusin], in series [1], the “PTP1B IC50 (Mean ± SEM)” value was found to be 31.30 ± 0.97 µg/mL. In series [2], the “α-Glucosidase IC50 (Mean ± SEM)” value was 142.19 ± 1.22 µg/mL.
The matching figures for Cassiaside: 48.55 ± 1.27 µg/mL and 129.23 ± 0.98 µg/mL.
For `COc1cc2c(c(OC)c1OC)C(=O)c1c(cc(C)c(O[C@@H]3O[C@H](CO)[C@@H](O)[C@H](O)[C@H]3O)c1OC)C2=O` [Chryso-obtusin-2-glucoside, chryso-obtusin-2-O-β-D-glucoside], the “PTP1B IC50 (Mean ± SEM)” value in series [1] is reported as 39.34 ± 1.07 µg/mL. Also, the “α-Glucosidase IC50 (Mean ± SEM)” value in series [2] is 178.85 ± 0.55 µg/mL.
`COc1cc(C)cc2c1C(=O)c1c(O)cc(O)cc1C2=O` [1-O-methylemodin]: in series [3], the “α-glucosidase inhibitory activity (reported)” value is “inactive”.
Consider `COc1c(O)c(O)cc2c1C(=O)c1c(O)cc(C)cc1C2=O` [2-Hydroxyemodin-1 methylether], for which the “PTP1B IC50 (Mean ± SEM)” value in series [1] turned out to be 5.22 ± 0.29 µg/mL. The “α-Glucosidase IC50 (Mean ± SEM)” value in series [2] turned out to be 5.65 ± 0.20 µg/mL.
On the same counts, the results for `COc1cc2c(c(O)c1OC)C(=O)c1c(cc(C)c(O)c1OC)C2=O` [Obtusin] are 6.44 ± 0.22 µg/mL and 20.92 ± 0.41 µg/mL.
On to `CN(C)C(=N)N=C(N)N` [metformin, reference compound], for which, in series [4] (metformin 10 μM, positive control), the insulin-stimulated glucose uptake entry is recorded as “significantly increased”.
Turning to `COc1cccc2c1C(=O)c1c(O)cc(C)cc1C2=O` [8-O-methyl chrysophanol], the “α-glucosidase inhibitory activity (reported)” value in series [3] was “α-glucosidase inhibitors”.
Take `Cc1cc(O)c2c(c1)C(=O)c1cccc(O)c1C2=O` [Chrysophanol]: the IC50 in series [1] was 23 µM. Moreover, in series [2], the “α-Glucosidase IC50 (Mean ± SEM)” value was 46.81 ± 0.12 µg/mL. Besides, the “PTP1B inhibition (previous reports)” value in series [5] is given as “inhibited PTP1B”.
In the case of `COc1cc2c(c(OC)c1OC)C(=O)c1c(cc(C)c(O)c1OC)C2=O` [Chryso-obtusin], in series [3], the “α-glucosidase inhibitory activity (reported)” value is recorded as “α-glucosidase inhibitors”. Further, the IC50 in series [1] is 41.5 µM. The “α-Glucosidase IC50 (Mean ± SEM)” value in series [2] was determined as 36.01 ± 0.89 µg/mL.
Turning to Toralactone gentiobioside, the “PTP1B IC50 (Mean ± SEM)” value in series [1] turned out to be 81.15 ± 0.15 µg/mL. For the same molecule, in series [2], the “α-Glucosidase IC50 (Mean ± SEM)” value turned out to be 37.60 ± 0.79 µg/mL.
On to `COc1cc(O)cc2c1C(=O)c1c(O)cc(C)cc1C2=O` [Questin], for which the IC50 in series [1] was 20 µM. Moreover, the “α-Glucosidase IC50 (Mean ± SEM)” value in series [2] came to 136.19 ± 0.01 µg/mL.
On to `O=C1c2cccc(O)c2C(=O)c2c(O)cc(CO)cc21` [Aloe-emodin], for which the IC50 in series [1] was 207 µM. Besides, the “α-Glucosidase IC50 (Mean ± SEM)” value in series [2] is recorded as 1.40 ± 0.27 µg/mL.
With `COc1c(O[C@@H]2O[C@H](CO)[C@@H](O)[C@H](O)[C@H]2O)c(C)cc2c1C(=O)c1c(O)cccc1C2=O` [Gluco-obtusifolin], the “PTP1B IC50 (Mean ± SEM)” value in series [1] is listed as 53.35 ± 0.44 µg/mL. Besides, in series [2], the “α-Glucosidase IC50 (Mean ± SEM)” value turned out to be 23.77 ± 0.72 µg/mL.
Consider `Cc1cc(O)c2c(c1)C(=O)c1cc(O)cc(O)c1C2=O` [Emodin, 1,6,8-trihydroxy 3-methyl anthraquinone], for which the “concentration without any cytotoxicity” value in series [6] was “up to 12.5 µM”. Moreover, the “insulin-stimulated uptake of 2-NBDG” value in series [4] (3.125, 6.25, and 12.5 μM emodin, 24 h, compared to the control) is given as “significantly enhanced”. Further, the IC50 in series [1] is 13 µM. Further, the “α-Glucosidase IC50 (Mean ± SEM)” value in series [2] turned out to be 1.02 ± 0.01 µg/mL. In series [5], the “PTP1B inhibition (previous reports)” value was “inhibited PTP1B”.
Cassitoroside: the “α-Glucosidase IC50 (Mean ± SEM)” value in series [2] was determined as 172.59 ± 0.74 µg/mL.
As to `Cc1cc(O[C@@H]2O[C@H](CO[C@@H]3O[C@H](CO)[C@@H](O)[C@H](O[C@@H]4O[C@H](CO)[C@@H](O)[C@H](O)[C@H]4O)[C@H]3O)[C@@H](O)[C@H](O)[C@H]2O)c2c(c1)C(=O)c1cccc(O)c1C2=O` [Chrysophanol triglucoside], the “PTP1B IC50 (Mean ± SEM)” value in series [1] was determined as 80.17 ± 1.77 µg/mL. In addition, the “α-Glucosidase IC50 (Mean ± SEM)” value in series [2] is recorded as 197.06 ± 1.09 µg/mL.
With `COc1cc(O)c2c(c1)C(=O)c1cc(C)cc(O)c1C2=O` [Physcion], the “α-glucosidase inhibitory activity (reported)” value in series [3] is on record as “α-glucosidase inhibitors”. In addition, the IC50 in series [1] was 25.6 µM. The “α-Glucosidase IC50 (Mean ± SEM)” value in series [2] is 2.38 ± 0.77 µg/mL. Besides, the “PTP1B inhibition (previous reports)” value in series [5] was “inhibited PTP1B”.
For the molecule `COc1c(O)c(C)cc2c1C(=O)c1c(O)cccc1C2=O` [Obtusifolin], the “α-glucosidase inhibitory activity (reported)” value in series [3] was “inactive”. Also, in series [1], the IC50 is 124 µM. Further, in series [2], the “α-Glucosidase IC50 (Mean ± SEM)” value is on record as 142.12 ± 0.77 µg/mL.
In the case of `COc1c(O)cc2c(c1O)C(=O)c1c(cc(C)c(O)c1OC)C2=O` [Aurantio-obtusin], the “α-glucosidase inhibitory activity (reported)” value in series [3] was “inactive”. Also, in series [1], the IC50 is 82.3 µM. Also, the “α-Glucosidase IC50 (Mean ± SEM)” value in series [2] amounted to 41.20 ± 0.17 µg/mL.
With `Cc1cc(O[C@@H]2O[C@H](CO[C@@H]3O[C@H](CO)[C@@H](O)[C@H](O[C@@H]4O[C@H](CO[C@@H]5O[C@H](CO)[C@@H](O)[C@H](O)[C@H]5O)[C@@H](O)[C@H](O)[C@H]4O)[C@H]3O)[C@@H](O)[C@H](O)[C@H]2O)c2c(c1)C(=O)c1cccc(O)c1C2=O` [Chrysophanol tetraglucoside], the “PTP1B IC50 (Mean ± SEM)” value in series [1] came out at 103.89 ± 1.22 µg/mL. Also, the “α-Glucosidase IC50 (Mean ± SEM)” value in series [2] is given as 228.79 ± 0.91 µg/mL.
